Measured values: the NIST ThermoML archive (doi:10.1021/je900722m)

Experiment: xn = mol fraction of the nth substance listed
Details: 101 kPa, Liquid

CC(C)CO [2-methyl-1-propanol] + CCCCO
Details | mass density [kg/m3] | viscosity [mPa·s]
303.15 K, x2 = 0.101 | 794.896 | 3.447
303.15 K, x2 = 0.2029 | 795.74 | 3.443
303.15 K, x2 = 0.3008 | 796.558 | 3.389
303.15 K, x2 = 0.4 | 797.382 | 3.313
303.15 K, x2 = 0.5 | 798.209 | 3.237
303.15 K, x2 = 0.5999 | 799.026 | 3.166
303.15 K, x2 = 0.6999 | 799.838 | 3.102
303.15 K, x2 = 0.7993 | 800.635 | 3.04
303.15 K, x2 = 0.8995 | 801.426 | 2.971
308.15 K, x2 = 0.101 | 790.969 | 2.987
308.15 K, x2 = 0.2029 | 791.819 | 2.983
308.15 K, x2 = 0.3008 | 792.643 | 2.939
308.15 K, x2 = 0.4 | 793.476 | 2.871
308.15 K, x2 = 0.5 | 794.307 | 2.804
308.15 K, x2 = 0.5999 | 795.132 | 2.752
308.15 K, x2 = 0.6999 | 795.953 | 2.708
308.15 K, x2 = 0.7993 | 796.757 | 2.669
308.15 K, x2 = 0.8995 | 797.554 | 2.62
313.15 K, x2 = 0.101 | 786.977 | 2.591
313.15 K, x2 = 0.2029 | 787.84 | 2.587
313.15 K, x2 = 0.3008 | 788.67 | 2.562
313.15 K, x2 = 0.4 | 789.511 | 2.511
313.15 K, x2 = 0.5 | 790.349 | 2.462
313.15 K, x2 = 0.5999 | 791.184 | 2.424
313.15 K, x2 = 0.6999 | 792.012 | 2.391
313.15 K, x2 = 0.7993 | 792.829 | 2.363
313.15 K, x2 = 0.8995 | 793.633 | 2.327
318.15 K, x2 = 0.101 | 782.93 | 2.236
318.15 K, x2 = 0.2029 | 783.806 | 2.234
318.15 K, x2 = 0.3008 | 784.646 | 2.219
318.15 K, x2 = 0.4 | 785.496 | 2.191
318.15 K, x2 = 0.5 | 786.344 | 2.158
318.15 K, x2 = 0.5999 | 787.188 | 2.129
318.15 K, x2 = 0.6999 | 788.027 | 2.111
318.15 K, x2 = 0.7993 | 788.855 | 2.094
318.15 K, x2 = 0.8995 | 789.67 | 2.068
323.15 K, x2 = 0.101 | 778.816 | 1.964
323.15 K, x2 = 0.2029 | 779.704 | 1.958
323.15 K, x2 = 0.3008 | 780.558 | 1.951
323.15 K, x2 = 0.4 | 781.419 | 1.931
323.15 K, x2 = 0.5 | 782.279 | 1.91
323.15 K, x2 = 0.5999 | 783.136 | 1.89
323.15 K, x2 = 0.6999 | 783.985 | 1.877
323.15 K, x2 = 0.7993 | 784.825 | 1.864
323.15 K, x2 = 0.8995 | 785.654 | 1.843
328.15 K, x2 = 0.101 | 774.633 | 1.68
328.15 K, x2 = 0.2029 | 775.537 | 1.692
328.15 K, x2 = 0.3008 | 776.405 | 1.689
328.15 K, x2 = 0.4 | 777.281 | 1.684
328.15 K, x2 = 0.5 | 778.156 | 1.673
328.15 K, x2 = 0.5999 | 779.026 | 1.668
328.15 K, x2 = 0.6999 | 779.893 | 1.662
328.15 K, x2 = 0.7993 | 780.744 | 1.658
328.15 K, x2 = 0.8995 | 781.588 | 1.65
333.15 K, x2 = 0.101 | 770.368 | 1.507
333.15 K, x2 = 0.2029 | 771.292 | 1.523
333.15 K, x2 = 0.3008 | 772.177 | 1.52
333.15 K, x2 = 0.4 | 773.068 | 1.511
333.15 K, x2 = 0.5 | 773.961 | 1.499
333.15 K, x2 = 0.5999 | 774.846 | 1.489
333.15 K, x2 = 0.6999 | 775.732 | 1.488
333.15 K, x2 = 0.7993 | 776.596 | 1.484
333.15 K, x2 = 0.8995 | 777.457 | 1.48
338.15 K, x2 = 0.101 | 766.021 | 1.342
338.15 K, x2 = 0.2029 | 766.966 | 1.363
338.15 K, x2 = 0.3008 | 767.871 | 1.361
338.15 K, x2 = 0.4 | 768.778 | 1.357
338.15 K, x2 = 0.5 | 769.689 | 1.351
338.15 K, x2 = 0.5999 | 770.594 | 1.343
338.15 K, x2 = 0.6999 | 771.495 | 1.341
338.15 K, x2 = 0.7993 | 772.378 | 1.338
338.15 K, x2 = 0.8995 | 773.258 | 1.335
343.15 K, x2 = 0.101 | 761.578 | 1.204
343.15 K, x2 = 0.2029 | 762.548 | 1.226
343.15 K, x2 = 0.3008 | 763.474 | 1.23
343.15 K, x2 = 0.4 | 764.4 | 1.228
343.15 K, x2 = 0.5 | 765.333 | 1.225
343.15 K, x2 = 0.5999 | 766.26 | 1.218
343.15 K, x2 = 0.6999 | 767.182 | 1.215
343.15 K, x2 = 0.7993 | 768.085 | 1.213
343.15 K, x2 = 0.8995 | 768.986 | 1.211
